{"source": "patent US20040151761A1", "about": "“Methods and compositions utilizing astaxanthin” (priority 2003, published 2004)", "key": {"[1]": {"system": "Canine thyroid adenocarcinoma cells (target cells)", "assay": "Natural killer cell cytotoxic activity in dogs", "assay_type": "in vivo, dog", "protocol": "Natural killer cell cytotoxic activity. Canine thyroid adenocarcinoma cells (target cells) were resuspended to 2×10^5 cells/mL in Dulbecco's Modified Eagles Medium (Sigma, St. Louis, Mo.) containing 100 mL/L fetal bovine serum, 100 U/mL penicillin, and […] streptomycin sulfate. Ficol-separated PBMC (effector cells) were resuspended to 1×10^6 and 2×10^6 cells/mL and 100 microliters added to the target cells in 96-well flat-bottom plates to provide effector:taiget ratios of 5:1 and 10:1. After incubating for 8 h, 20 microliters (5 g/L) of MTT were added and incubated for 4 hours. The supernatant was removed and the formazan resuspended in 100 microliters isopropanol. Optical density was measured at 550 nm and the percent of specific cytotoxicity calculated as follows:\n% Specific cytotoxicity=1−(ODeffector+target−ODeffector)/ODtarget×100."}, "IgG and IgM": {"system": "IgG and IgM", "assay": "Plasma IgG and IgM in dogs (ELISA)", "assay_type": "in vivo, dog", "text": "Female Beagle dogs (9 to 10 mo old; 8.2±0.2 kg body weight; Covance Research Products Inc., Kalamazoo, Mich.) were randomly assigned ([…] concentrate from Haematococcus pluvialis, astraZanthin™, La Haye Laboratories, Redmond, Wash.) daily for 16 weeks. Astaxanthin was incorporated into a commercial basal diet (The Iams Co., Lewisburg, Ohio.) and fed two times daily (200 g food/d). The diet composition was as follows (g/kg): 85.3 moisture, 275.8 protein, 60.7 ash, 115.0 fat, 9.9 Ca, 9.3 P, 21.3 crude fiber, and 18,914 kJ/kg gross energy; the n-6:n-3 fatty acid ratio was 7.9. Dogs were housed in 2×3 m pens (2 dogs/pen) in a temperature (20 to 22° C.) and light-(14 hour light) controlled facility. Body weight was recorded on week 0, 4, 8, and 16. Blood was collected on wk 0, 6 and 12 for assessing immune function. All dogs were vaccinated (Vanguard 5™, Smithkline Beacham, West Chester, Pa.) twice on week 12 and 14 and blood again taken on week 16 to assess post-vaccination immune responses.\nIgG and IgM. Concentrations of IgG (sheep anti-dog IgG; sensitivity=16 micrograms/L) and IgM (goat anti-dog IgM; sensitivity=31 micrograms/L) in plasma were analyzed by ELISA using a commercial kit (Bethyl Lab., Inc., Montgomery, Tex.)."}, "[2]": {"system": "mammary and bladder tumor", "conditions": "cited from earlier work"}, "[3]": {"system": "peripheral blood mononuclear cell (PBMC)", "assay": "Lymphoproliferation in cats (whole blood)", "assay_type": "in vivo, cat", "protocol": "Lymphoproliferation. Mitogen-induced peripheral blood mononuclear cell (PBMC) proliferation was assessed by incubating whole blood in the presence of PHA (0.25 and 1.25 mg/L final concentration), con A (0.5 and 2.5 mg/L), and pokeweed mitogen (PWM; 0.025 and 0.125 mg/L) as previously described (Chew et al., 2000). Whole blood was used in order to simulate in vivo conditions. Results are reported as stimulation index (cpm of mitogen-stimulated÷cpm of unstimulated cultures)."}}, "note": "“Also recorded” adds a separate entry of the source."}
{"smiles": "CC1=C(/C=C/C(C)=C/C=C/C(C)=C/C=C/C=C(C)/C=C/C=C(C)/C=C/C2=C(C)C(=O)C(O)CC2(C)C)C(C)(C)CC(O)C1=O", "note": "(stereo not drawn) [astaxanthin, 3,3′-dihydroxy-beta, beta-carotene-4,4′-dione]", "values": [{"measurement": "NK cell activity", "setting": "[1]; week 6", "value": "dose-dependent increase in NK cell activity"}, {"measurement": "NK cell activity", "setting": "[1]; week 6, dogs fed 30 mg", "value": "significantly higher than control"}, {"measurement": "NK cell cytotoxic activity", "setting": "[1]; week 12, 20 mg", "value": "higher NK cell cytotoxic activity than control"}, {"measurement": "NK cell cytotoxic activity", "setting": "[1]; week 16 (trend as week 12: 20 mg higher, 40 mg not)", "value": "same trend continued through week 16"}, {"measurement": "plasma IgG concentration", "setting": "IgG and IgM; 20 mg, post-vaccination week 16", "value": "higher; also recorded: highest concentrations of IgG and IgM"}, {"measurement": "plasma IgG concentration", "setting": "IgG and IgM; 20 mg, week 12", "value": "higher"}, {"measurement": "plasma IgM concentration", "setting": "IgG and IgM; 20 mg, week 16", "value": "significantly higher IgM concentrations; also recorded: highest concentrations of IgG and IgM"}, {"measurement": "IgG production", "setting": "IgG and IgM; higher (30 mg) dietary astaxanthin", "value": "did not produce the same stimulation"}, {"measurement": "mammary tumor growth", "setting": "[2]; rodents (Chew et al., 1999a)", "value": "inhibited"}, {"measurement": "bladder tumor growth", "setting": "[2]; rodents (Tanaka et al., 1994)", "value": "inhibited"}, {"measurement": "proliferative response to ConA", "setting": "[3]; 1 mg, post-vaccination week 12", "value": "higher proliferative response"}, {"measurement": "proliferative response to PHA", "setting": "[3]; 1 mg, post-vaccination week 12", "value": "higher proliferative response"}, {"measurement": "proliferative response to PWM", "setting": "[3]; 1 mg, post-vaccination week 12", "value": "higher proliferative response"}, {"measurement": "mitogen-induced PBMC proliferation", "setting": "[3]; by week 8", "value": "did not influence"}]}
